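Protocol summary: plate cells (96-well), add compound at 5 concentrations, incubate 48 h, interpolate endpoints linearly. Abbreviation: GI50, concentration required for 50% inhibition of growth.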 Activity calls are given as the source filed them. No stated cut-off is given here; in the data, active = GI50 up to about 1.1 µM and inactive = higher.
Legend:
Assay in all cases: growth of human tumour cells (NCI), 48 h
[1] = system: NCI-H226
[2] = system: NCI-H460
[3] = system: A549
[4] = system: SF-539
[5] = system: PC-3
[6] = system: HCT-15
[7] = system: MDA-N
[8] = system: HT-29
[9] = system: NCI-H23
[10] = system: SNB-19
[11] = system: SF-268
[12] = system: SR
[13] = system: MCF7
[14] = system: OVCAR-8
[15] = system: RPMI-8226
[16] = system: Hs-578T
[17] = system: M14
[18] = system: SF-295
[19] = system: HCT-116
[20] = system: SW-620
[21] = system: HL-60
[22] = system: UACC-257
[23] = system: HOP-92
[24] = system: T47D
[25] = system: CCRF-CEM
[26] = system: NCI/ADR-RES
[27] = system: MDA-MB-435
[28] = system: A498
[29] = system: SK-MEL-28
[30] = system: K562
[31] = system: MDA-MB-231
[32] = system: SK-MEL-2
[33] = system: SK-OV-3
[34] = system: HOP-62
[35] = system: TK-10
[36] = system: SN12C
[37] = system: HCC 2998
[38] = system: NCI-H522
[39] = system: OVCAR-5
[40] = system: DU-145
[41] = system: UO-31
[42] = system: 786-0
[43] = system: IGROV-1
[44] = system: COLO 205
[45] = system: RXF 393
[46] = system: MOLT-4
[47] = system: BT-549
[48] = system: EKVX
[49] = system: ACHN
[50] = system: LOX IMVI
[51] = system: KM12
[52] = system: CAKI-1
[53] = system: Malme-3M
[54] = system: OVCAR-4
[55] = system: UACC-62
[56] = system: OVCAR-3
[57] = system: U-251
[58] = system: SNB-75

Measured: GI50

Sc1nn2c(COc3cccc(OCc4nnc5sc(S)nn45)c3)nnc2s1
inactive: [1] > 100 µM | [2] 31.8 µM | [3] > 100 µM | [4] 52.1 µM | [5] > 100 µM | [7] > 100 µM | [8] 62.5 µM | [9] > 100 µM | [10] > 100 µM | [11] > 100 µM | [12] 17.4 µM | [13] 76.2 µM | [14] > 100 µM | [15] 73.5 µM | [16] > 100 µM | [17] > 100 µM | [18] > 100 µM | [19] > 100 µM | [20] 37.5 µM | [21] 7.08 µM | [22] > 100 µM | [23] > 100 µM | [24] > 100 µM | [25] 28.2 µM | [26] > 100 µM | [27] > 100 µM | [28] > 100 µM | [29] > 100 µM | [30] 7.89 µM | [31] > 100 µM | [32] > 100 µM | [33] > 100 µM | [34] > 100 µM | [35] > 100 µM | [36] > 100 µM | [37] > 100 µM | [38] 64.6 µM | [39] > 100 µM | [40] > 100 µM | [41] > 100 µM | [42] 41.4 µM | [43] > 100 µM | [44] > 100 µM | [45] > 100 µM | [46] 2.09 µM | [47] > 100 µM | [48] > 100 µM | [49] > 100 µM | [50] 34.4 µM | [51] > 100 µM | [52] > 100 µM | [53] > 100 µM | [54] > 100 µM | [55] > 100 µM | [56] > 100 µM | [57] > 100 µM | [58] > 100 µM
52.8 µM: [6]

Reference: ChEMBL document CHEMBL1201862, “PubChem BioAssay data set” (2004)
